The record followed here is US8435978B2, “Substituted sulfonamide compounds” (Gruenenthal GmbH, priority 2006, dated 2013).

Broadly, the inhibition is the relative decrease from the control value, in per cent.

Assay [1] has as its target T1, human B1R receptor (Homo sapiens, UniProt P46663).
T1 construct: host or cells: CHO K1 cells (Chinese hamster ovary), stably transfected
T1 sequence (P46663 1-353): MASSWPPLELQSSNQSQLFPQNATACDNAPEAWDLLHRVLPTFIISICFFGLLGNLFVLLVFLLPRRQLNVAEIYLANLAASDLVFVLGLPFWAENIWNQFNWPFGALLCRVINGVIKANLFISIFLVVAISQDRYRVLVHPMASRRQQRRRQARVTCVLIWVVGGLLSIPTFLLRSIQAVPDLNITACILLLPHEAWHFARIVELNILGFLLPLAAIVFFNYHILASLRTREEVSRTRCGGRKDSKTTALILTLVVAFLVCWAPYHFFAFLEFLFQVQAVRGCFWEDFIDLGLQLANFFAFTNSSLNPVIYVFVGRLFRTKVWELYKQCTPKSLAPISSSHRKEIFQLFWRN
Description: Functional study on the bradykinin receptor 1 (B1R), FLIPR Ca2+ assay, hB1R cells. It is filed as cell-based. The settings on record: agonist Lys-Des-Arg9-bradykinin 0.5 nM, % inhibition compared with the maximum achievable inhibition; for inhibition at 10 µM: CHO-K1, test substance 10 μM, read-out: B1R Antagonism, human [10 μM] % Inhibition; for B1R Antagonism, human [10 μM] % Inhibition: test substance 10 μM, hB1R CHO K1 cells. A digest of the protocol: (§1)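 FLIPR Ca2+ read-out (Fluo-4, peak fluorescence) in stably transfected CHO K1 cells. Compounds at 10 μM, then 10 min later agonist challenge: human B1R with Lys-Des-Arg9-bradykinin 0.5 nM, rat B1R with Des-Arg9-bradykinin 100 nM; reported as % activation or % of maximal inhibition.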

The target of assay [2] is T2, B1R receptor of the rat (Rattus norvegicus, UniProt P97583).
T2 construct: host or cells: CHO K1 cells (Chinese hamster ovary), stably transfected
T2 sequence (P97583 1-337): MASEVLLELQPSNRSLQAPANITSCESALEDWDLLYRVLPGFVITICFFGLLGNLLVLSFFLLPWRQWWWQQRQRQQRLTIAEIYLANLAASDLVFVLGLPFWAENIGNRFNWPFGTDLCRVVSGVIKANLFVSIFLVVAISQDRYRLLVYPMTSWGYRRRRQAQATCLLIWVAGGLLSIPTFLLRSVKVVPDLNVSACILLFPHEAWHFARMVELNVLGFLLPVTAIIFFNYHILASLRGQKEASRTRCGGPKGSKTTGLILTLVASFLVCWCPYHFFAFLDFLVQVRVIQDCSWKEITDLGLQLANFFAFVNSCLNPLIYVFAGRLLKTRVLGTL
Description: Functional study on the bradykinin receptor 1 (B1R), FLIPR Ca2+ assay, rB1R cells. It counts as cell-based. The settings on record: agonist Des-Arg9-bradykinin 100 nM, % inhibition compared with the maximum achievable inhibition; for inhibition at 10 µM: CHO-K1, test substance 10 μM, read-out: B1R Antagonism, rat [10 μM] % Inhibition; for B1R Antagonism, rat [10 μM] % Inhibition: test substance 10 μM, rB1R CHO K1 cells. The essentials: as §1

Counter-ions that a name gives are not always drawn.

In the case of `COc1cc(C)c(S(=O)(=O)N2CCCC[C@H]2COCC(=O)N2CCN(C3CCN(C)CC3)CC2)c(C)c1` [Example 167, (S)-2-((1-(4-methoxy-2,6-dimethylphenylsulfonyl)piperidin-2-yl)methoxy)-1-(4-(1-methylpiperidin-4-yl)piperazin-1-yl)ethanone], the inhibition at 10 µM in assay [1] was found to be 102%; in assay [2] it was 101%.

Regarding “1-(4-(3-chloro-5-(trifluoromethyl)pyridin-2-yl)piperazin-1-yl)-2-((1-(2,6-dichlorophenylsulfonyl)piperidin-2-yl)methoxy)ethanone [Example 485]”, the “B1R Antagonism, human [10 μM] % Inhibition” value in assay [1] came to 65.25%. The “B1R Antagonism, rat [10 μM] % Inhibition” value in assay [2] was 103.41%.

In the case of `O=C(COCC1CCCCN1S(=O)(=O)c1ccc(Cl)c(Cl)c1)N1CCN(c2ccccc2)CC1` (centres unmarked) [Example 56, 2-[1-(3,4-dichloro-phenylsulfonyl)-piperidin-2-ylmethoxy]-1-(4-phenyl-piperazin-1-yl)-ethanone], the inhibition at 10 µM worked out at 62.7% in assay [1] and 0% in assay [2].

For the compound `COc1cc(C)c(S(=O)(=O)N2CCCCC2COCC(=O)Nc2ccc(Cn3ccnc3)cc2)c(C)c1` (centres unmarked) [Example 420, N-(4-((1H-imidazol-1-yl)methyl)phenyl)-2-((1-(4-methoxy-2,6-dimethylphenylsulfonyl)piperidin-2-yl)methoxy)acetamide], the inhibition at 10 µM was determined as 100% in assay [1] and 92% in assay [2].

For `CN(C)CCCN1CCN(C(=O)COCC2CCCN2S(=O)(=O)c2c(Cl)cccc2Cl)CC1` (centres unmarked) [Example 566, 2-((1-(2,6-dichlorophenylsulfonyl)pyrrolidin-2-yl)methoxy)-1-(4-(3-(dimethylamino)propyl)piperazin-1-yl)ethanone], the inhibition at 10 µM in assay [1] and in assay [2] was 103% each time.

As to `CN1CCC(N2CCN(C(=O)COCC3CCCN3S(=O)(=O)c3c(Cl)cccc3Cl)CC2)CC1` (centres unmarked) [Example 567, 2-((1-(2,6-dichlorophenylsulfonyl)pyrrolidin-2-yl)methoxy)-1-(4-(1-methylpiperidin-4-yl)piperazin-1-yl)ethanone], the inhibition at 10 µM in assay [1] was determined as 104%; in assay [2], 102%.

On to `CCN(CC)CCN(CCN(CC)CC)C(=O)COCC1Cc2ccccc2CN1S(=O)(=O)c1c(C)cc(C)cc1C` (centres unmarked) [Example 48, N,N-bis-(2-diethylamino-ethyl)-2-[2-(2,4,6-trimethyl-phenylsulfonyl)-1,2,3,4-tetra-hydro-isoquinolin-3-ylmethoxy]-acetamide], for which the inhibition at 10 µM worked out at 66.6% in assay [1] and 30.5% in assay [2].

With `COc1cc(C)c(S(=O)(=O)N2CCCCC2COCC(=O)N2CCC(c3ccccn3)C2)c(C)c1` (centres unmarked) [Example 236, 2-((1-(4-methoxy-2,6-dimethylphenylsulfonyl)piperidin-2-yl)methoxy)-1-(3-(pyridin-2-yl)pyrrolidin-1-yl)ethanone], the results for the inhibition at 10 µM in assay [1] and in assay [2] were 95.9% and 99.6%, respectively.

Turning to `COc1cc(C)c(S(=O)(=O)N2CCCCC2COCC(=O)N2CCN(CCC3CCN(C)CC3)CC2)c(C)c1` (centres unmarked) [Example 212, 2-((1-(4-methoxy-2,6-dimethylphenylsulfonyl)piperidin-2-yl)methoxy)-1-(4-(2-(1-methylpiperidin-4-yl)ethyl)piperazin-1-yl)ethanone], the inhibition at 10 µM worked out at 107% in assay [1] and 100% in assay [2].

Take `O=C(COCC1CCCN1S(=O)(=O)c1c(Cl)cccc1Cl)N1CCN(Cc2ccc(Br)cc2)CC1` (centres unmarked) [Example 358, 1-(4-(4-bromobenzyl)piperazin-1-yl)-2-((1-(2,6-dichlorophenylsulfonyl)pyrrolidin-2-yl)methoxy)ethanone]: the inhibition at 10 µM came out at 101% in assay [1] and 103% in assay [2].

In the case of `COc1cc(C)c(S(=O)(=O)N2CCCC2COCC(=O)NCCCCN2CCCC2)c(C)c1` (centres unmarked) [Example 523, 2-((1-(4-methoxy-2,6-dimethylphenylsulfonyl)pyrrolidin-2-yl)methoxy)-N-(4-(pyrrolidin-1-yl)butyl)acetamide], the inhibition at 10 µM in assay [1] was 66.4%; in assay [2], 101%.

As for `COc1cc(C)c(S(=O)(=O)N2CCCCC2COCC(=O)Nc2ccccc2N2CCN(C)CC2)c(C)c1` (centres unmarked) [Example 431, 2-((1-(4-methoxy-2,6-dimethylphenylsulfonyl)piperidin-2-yl)methoxy)-N-(2-(4-methylpiperazin-1-yl)phenyl)acetamide], the inhibition at 10 µM in assay [1] is 28.4%; in assay [2], 96.2%.

As to `COc1cc(C)c(S(=O)(=O)N2CCCCC2COCC(=O)Nc2cccc(N3CCOCC3)c2)c(C)c1` (centres unmarked) [Example 436, 2-((1-(4-methoxy-2,6-dimethylphenylsulfonyl)piperidin-2-yl)methoxy)-N-(3-morpholinophenyl)acetamide], the inhibition at 10 µM in assay [1] was found to be 39.2%; in assay [2], 102%.

Regarding `COc1cc(C)c(S(=O)(=O)N2CCCC2COCC(=O)N2CCN(Cc3ccc(C)cc3)CC2)c(C)c1` (centres unmarked) [Example 353, 2-((1-(4-methoxy-2,6-dimethylphenylsulfonyl)pyrrolidin-2-yl)methoxy)-1-(4-(4-methylbenzyl)piperazin-1-yl)ethanone], the results for the inhibition at 10 µM in assay [1] and in assay [2] were 103% and 102%, respectively.

In the case of `COc1cc(C)c(S(=O)(=O)N2CCCCC2COCC(=O)N2CCC(c3ccncc3)CC2)c(C)c1` (centres unmarked) [Example 201, 2-((1-(4-methoxy-2,6-dimethylphenylsulfonyl)piperidin-2-yl)methoxy)-1-(4-(pyridin-4-yl)piperidin-1-yl)ethanone], the inhibition at 10 µM in assay [1] was determined as 103%; in assay [2], 98.2%.

On to `CN1CCC(N2CCN(C(=O)COCC3CCCCN3S(=O)(=O)c3ccc(C(F)(F)F)cc3Cl)CC2)CC1` (centres unmarked) [Example 138, 2-((1-(2-chloro-4-(trifluoromethyl)phenylsulfonyl)piperidin-2-yl)methoxy)-1-(4-(1-methylpiperidin-4-yl)piperazin-1-yl)ethanone], for which the inhibition at 10 µM was 104% in assay [1] and 98.5% in assay [2].

For `CN(C)Cc1ccc(CNC(=O)COCC2CCCN2S(=O)(=O)c2c(Cl)cc(Cl)cc2Cl)cc1` (centres unmarked) [Example 73, N-(4-dimethylaminomethyl-benzyl)-2-[1-(2,4,6-trichloro-phenylsulfonyl)-pyrrolidin-2-ylmethoxy]-acetamide], the inhibition at 10 µM amounted to 51% in assay [1] and 106% in assay [2].

`CN1CCC(N2CCN(C(=O)COCC3CCCCN3S(=O)(=O)c3cccc4cccnc34)CC2)CC1` (centres unmarked) [Example 175, 1-(4-(1-methylpiperidin-4-yl)piperazin-1-yl)-2-((1-(quinolin-8-ylsulfonyl)piperidin-2-yl)methoxy)ethanone dihydrochloride]: the inhibition at 10 µM in assay [1] turned out to be 103%; in assay [2], 86.3%.

With `COc1cc(C)c(S(=O)(=O)N2CCCCC2COCC(=O)NCC2CCCN(Cc3ccccc3)C2)c(C)c1` (centres unmarked) [Example 415, N-((1-benzylpiperidin-3-yl)methyl)-2-((1-(4-methoxy-2,6-dimethylphenylsulfonyl)piperidin-2-yl)methoxy)acetamide], the inhibition at 10 µM amounted to 99.2% in assay [1] and 97.5% in assay [2].

As to `COc1cc(C)c(S(=O)(=O)N2CCCCC2COCC(=O)Nc2cc(-c3ccc(Cl)cc3)n[nH]2)c(C)c1` (centres unmarked) [Example 537, N-(3-(4-chlorophenyl)-1H-pyrazol-5-yl)-2-((1-(4-methoxy-2,6-dimethylphenylsulfonyl)piperidin-2-yl)methoxy)acetamide], the results for the inhibition at 10 µM in assay [1] and in assay [2] were 12.5% and 98.7%, respectively.

Take `CN1CCC(N2CCN(C(=O)COCC3CCCCN3S(=O)(=O)c3cc(Cl)c(Cl)cc3Cl)CC2)CC1` (centres unmarked) [Example 156, 1-(4-(1-methylpiperidin-4-yl)piperazin-1-yl)-2-((1-(2,4,5-trichlorophenylsulfonyl)piperidin-2-yl)methoxy)ethanone dihydrochloride]: the inhibition at 10 µM in assay [1] was 108%; in assay [2] it was 103%.

With `O=C(COCC1Cc2ccccc2CN1S(=O)(=O)c1ccc(Cl)cc1Cl)N1CCC(N2CCCC2)CC1` (centres unmarked) [Example 17], the “B1R Antagonism, human [10 μM] % Inhibition” value in assay [1] is reported as 95.53%. In addition, the “B1R Antagonism, rat [10 μM] % Inhibition” value in assay [2] is given as 96.94%.
